The values that follow come from patent US20220112194A1, “COMPOUNDS TARGETING PRMT5” (ALIGOS THERAPEUTICS, INC., priority 2020, published 2022).

Each structure is given as a SMILES string.

The term EC50 denotes the concentration at which the effect is half-maximal. Low values mean an effect from little substance, high ones a need for much substance. A word on the IC50: it is the concentration that inhibits the measured activity by half. Low values mean greater potency in that assay, high ones weaker potency in that assay.

Assay [1] concerns A549 lung carcinoma cells. Nature of the assay: Cell proliferation assay A549 (CellTiter-Glo, 7 days). In kind it is cell-based. The note with it: Homo sapiens, A549, 168 h, A549, 7 days, cell viability CellTiter-Glo 2.0. On the procedure: (§1) HepG2 hepatoma cells (ATCC, HB-8065) were maintained in DMEM with high glucose (Lonza, 12-914F) supplemented with 10% fetal bovine serum (FBS; Biowest, S181B-500) and 2 mM L-glutamine (Biowest, X0551-100) at 37° C. and 5% CO2. A549 lung carcinoma cells (ATCC, CCL-185) were maintained in F-12K medium (ThermoFisher 21127030) supplemented with 10% FBS at 37° C. and 5% CO2. Exponentially growing HepG2 or A549 were plated in white, clear-bottom 96-well plates (Corning, 3903) at a cell density of 2000 (HepG2) or 350 (A549) cells per well in 199 μL of HepG2 medium. Next, 1 μL of a 5-fold 9-point dilution series of test compound in DMSO was added to the different wells. Cells were incubated at 37° C. 5% CO2 for 7 days. Cell viability was assessed on day 7 with the CellTiter-Glo 2.0 Cell Viability assay kit (Promega, G9243) to quantify the intracellular amounts of ATP: first, 100 μL of cell culture medium was removed from each well, next 100 μL of CellTiter-Glo® 2.0 Reagent was added and plates were shaken for 2 minutes on an orbital shaker. After 10 minutes stabilization at room temperature, read-out was performed on a ThermoFisher VarioSkan Lux plate reader. Counts were normalized to DMSO control (0% inhibition) and the cytotoxic control (100% inhibition) and EC50 values were determined in GraphPad Prism 8 using the [Agonist] vs. response—Variable slope (four parameters) function.
(§2) As shown by the data of Table 2, compounds of Formula (I) have activity in this assay. A value of ‘A’ in the table below indicates an EC50 of <20 nM, a value of ‘B’ indicates an EC50≥20 nM to <100 nM, a value of ‘C’ indicates an EC50 value of EC50≥100 nM to <1000 nM and a value of ‘D’ indicates an EC50≥1000 nM
A general note: ATP-based viability assays read luminescence as a measure of living cells.

In the next assay the test system is HepG2 hepatoma cells. Description: Cell proliferation assay HepG2 (CellTiter-Glo, 7 days). It counts as cell-based. The note with it: Homo sapiens, 168 h; HepG2, 7 days, cell viability CellTiter-Glo 2.0. On the procedure:
as §1, §2

Assay [2] addresses T1, PRMT5/MEP50 (Homo sapiens, UniProt O14744). Description: PRMT5/MEP50 enzyme inhibition assay, Assay 1 (radioisotope filter binding, 3H-SAM, histone H2A). In kind it is biochemical. Particulars: 1 μM 3H-SAM, 5 μM histone H2A, 60 min at 30° C. On the procedure: Compounds were tested for inhibition of methyltransferase activity in a radioisotope filter binding assay, similar to previously described in A selective inhibitor of PRMT5 with in vivo and in vitro potency in MCL models. Chan-Penebre et al., Nat Chem Biol. (2015) 11(6):432-7. In the standard PRMT5/MEP50 enzyme inhibition assay, compounds were tested in a 10-dose IC50 mode with 3- or 5-fold serial dilution, in singlet, starting at 1, 10, or 100 μM. Control compound, SAH (S-(5′-Adenosyl)-L-homocysteine), was tested in 10-dose IC50 mode with 3-fold serial dilution starting at 100 μM. Reactions were carried out at 1 μM 3H-SAM (PerkinElmer) and 5 μM histone H2A as substrates for methyl transfer. Following a 60 min incubation at 30° C., the reaction was stopped with 20% TCA. Each reaction was spotted on a filter plate (MultiScreen FB Filter plate, Millipore) and washed 5 times in PBS, after which scintillation fluid was added and signal was detected in a scintillation counter. Percent enzyme activity was calculated based on no inhibitor DMSO control as 100% activity. EC50 values were determined in GraphPad Prism 8 using the [inhibitor] vs. response—Variable slope (four parameters) function.
(§3) Compounds of Formula (I) show activity in this assay. A value of ‘A’ in the table below indicates an IC50 of <1 nM, a value of ‘B’ indicates an IC50≥1 nM to ≤100 nM, and a value of ‘C’ indicates an IC50 value of >100 nM.

Assay [3] has as its target T1, PRMT5/MEP50. Nature of the assay: PRMT5/MEP50 enzyme inhibition assay, Assay 2 (384-well, MALDI mass spectrometry, SAM, histone H4 1-21 peptide). In kind it is biochemical. The note with it: 1 μM SAM, 0.1 μM histone H4 1-21 peptide, 18-hour incubation at rt. How it is done:
Compounds were tested for inhibition of methyltransferase activity in 384-well plate assay format using mass spectrometry technology. In this enzyme inhibition assay, compounds were tested in a 11-dose IC50 mode with 3-serial dilution, in duplicate, starting at 1, 10, or 100 μM. Reactions were carried out at 1 μM SAM and 0.1 μM histone H4 1-21 peptide as substrates for methyl transfer. Following an 18-hour incubation at rt, the reaction was stopped with 0.5% formic acid. Products of the reaction were captured while unreacted substrates were washed away, prior to MALDI mass spectrometry detection and analysis. Percent enzyme activity was calculated based on no inhibitor DMSO control as 100% activity. EC50 values were determined in GraphPad Prism 8 using the [inhibitor] vs. response—Variable slope (four parameters) function.
as §3

T1 sequence (O14744 whole entry): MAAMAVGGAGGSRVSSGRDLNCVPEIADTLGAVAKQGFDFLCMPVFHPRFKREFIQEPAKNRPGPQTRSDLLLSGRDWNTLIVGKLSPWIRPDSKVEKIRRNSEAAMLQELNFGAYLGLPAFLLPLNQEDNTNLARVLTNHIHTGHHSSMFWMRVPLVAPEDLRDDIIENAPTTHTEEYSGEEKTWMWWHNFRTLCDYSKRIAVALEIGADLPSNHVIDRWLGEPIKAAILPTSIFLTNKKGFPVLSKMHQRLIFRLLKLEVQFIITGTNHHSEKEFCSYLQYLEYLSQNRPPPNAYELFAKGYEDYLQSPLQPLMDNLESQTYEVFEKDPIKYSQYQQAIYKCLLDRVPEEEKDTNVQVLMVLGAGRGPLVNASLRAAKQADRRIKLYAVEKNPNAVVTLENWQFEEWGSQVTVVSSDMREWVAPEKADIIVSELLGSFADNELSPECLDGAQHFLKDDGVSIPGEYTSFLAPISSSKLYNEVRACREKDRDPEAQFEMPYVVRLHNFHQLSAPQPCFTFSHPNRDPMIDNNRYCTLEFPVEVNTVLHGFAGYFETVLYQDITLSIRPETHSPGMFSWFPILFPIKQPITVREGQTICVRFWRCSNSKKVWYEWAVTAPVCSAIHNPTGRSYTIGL
T1 sequence (Q9BQA1 whole entry partner): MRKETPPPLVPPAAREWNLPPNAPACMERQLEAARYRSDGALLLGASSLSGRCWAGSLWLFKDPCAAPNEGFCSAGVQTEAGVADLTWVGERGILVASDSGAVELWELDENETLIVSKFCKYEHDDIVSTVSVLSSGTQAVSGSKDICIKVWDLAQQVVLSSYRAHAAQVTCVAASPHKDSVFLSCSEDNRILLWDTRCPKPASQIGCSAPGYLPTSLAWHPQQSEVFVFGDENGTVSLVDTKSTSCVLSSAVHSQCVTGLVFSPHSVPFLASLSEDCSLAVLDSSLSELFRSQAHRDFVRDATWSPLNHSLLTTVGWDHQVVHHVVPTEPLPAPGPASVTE

Take `C[C@@H]1[C@H](CCc2ccc3ccc(N)nc3c2)[C@@H](O)[C@@H](O)[C@@H]1n1ccc2c(N)ncnc21` [Compound 6]: the EC50 (in assay [1]; in the assay on HepG2 hepatoma cells) was ≥ 1000 nM in each case. The IC50 at PRMT5/MEP50 [2] and against PRMT5/MEP50 [3] was 1 to 100 nM in each case.
